# System: VEEV TC-83 infected cells, viral CPE inhibition
# Experiment: Cell based counter screen, viral CPE inhibition, VEEV strain KU V3526 (AID 651884)
row,SMILES,IC50
1,CCN1CCN(C)CC1=Nc1ccc([N+](=O)[O-])cc1C(=O)Nc1ccccc1,20 nM
2,COc1ccc(NC(=O)c2cc([N+](=O)[O-])ccc2N=C2CN(C)CCN2C)cc1,17 nM
3,CN1CCN(C)C(=Nc2ccc([N+](=O)[O-])cc2C(=O)Nc2ccccc2)C1,19.4 nM
4,CCN1CCN(Cc2nc3ccc([N+](=O)[O-])cc3c(=O)n2-c2ccccc2F)CC1,325 nM
